According to patent publication EP4635945A1, “CRYSTAL FORM OF PROXIMOD, PREPARATION METHOD THEREFOR, AND USE THEREOF” (Jiankuan (Suzhou) Biotechnology Co., Ltd, priority 2022, dated 2024):

Tests used:
Assay type in all cases: physicochemical
[1] = Solid-state stability of crystal forms on storage (XRPD, purity); details: for Maximum single impurity after storage / Crystal form after storage / Main purity after storage: 30 days, exposed
Method: The crystal forms of the samples before and after storage were tested by XRPD.

[2] = Dynamic solubility in biorelevant media and buffers at 37 °C (HPLC, XRPD of solids); details: for solubility at 1 h / solubility at 4 h / solubility at 24 h / solubility at 2 h: thermodynamic from solid
Method: After 1 hour/2 hours/4 hours/24 hours, the saturated solutions were obtained by filtration. The actual concentrations of the samples in the saturated solutions were determined by high-performance liquid chromatography (HPLC) (the filtered solutions were diluted as needed), and the crystal forms of the solids before and after the experiment were characterized by XRPD to check whether phase changes occurred.

[3] = Equilibrium solubility in organic solvents at room temperature (HPLC, XRPD of solids); details: organic solvent or mixture, thermodynamic from solid, 24 hours of equilibrium
Method: After 24 hours of equilibrium, the saturated solutions were obtained by filtration. The contents of the samples in the saturated solutions were determined by high-performance liquid chromatography (HPLC) (the filtered solutions were diluted as needed), and the crystal forms of the solids before and after the experiment were characterized by XRPD to check whether phase changes occurred.

[4] = Mechanical stability: grinding in agate mortar, XRPD; details: 50 mg ground with an agate mortar for 5 minutes; hydrochloride
Description: The samples before and after ground were detected by XRPD.

[5] = Fluidity: angle of repose, bulk and tap density, Hausner ratio; details: hydrochloride
Method: This experiment was performed by using a tap density tester according to the fixed-volume method. The specific operations are as follows: The weighed powder, with a volume of 50 mL, was loaded into a graduated cylinder, and the graduated cylinder was secured onto a support. The graduated cylinder was set to be vibrated at 55 ± 5 vibrations per minute for 6-8 minutes. The volume change of the powder was measured in a measuring cup. The ratio of the weight of the powder to the volume (50 mL) before tapping is the bulk density of the powder, and the ratio of the weight of the powder to the volume after tapping is the tapped density of the powder.
The Hausner ratio and the compression degree were converted in the following methods. Hausner ratio = tap density/bulk density [formula] Compression degree = (tapdensity−bulkdensity)/tap density [formula]
This experiment was performed by a pouring method, and the angles of repose of the drug substances of the two crystal forms were measured in combination with a residual cone method to analyze their fluidities. The specific operations are as follows: The powder was poured onto the center of a disk with a specific diameter, and when the material on the slope of the powder pile began to flow freely out along the periphery of the disk, the pouring of the powder was stopped. The height (h) of the cone was measured, and the angle of repose was calculated in combination with the diameter (2r) of the disk, that is, tanQ = h/r.

[6] = Adhesiveness: PE bag adhesive rate; details: flipped at 5 rpm, 10 minutes in each direction; hydrochloride
Method: The bags were sealed, flipped at a rotational speed of 5 rpm for 10 minutes, and continued to be flipped in a different flipping direction at a fixed rotational speed for 10 minutes. The materials were poured out of the bags, and the materials remaining in the bags were accurately weighed to calculate the adhesive rate.
The adhesive rate was calculated according to the following formula: Adhesive rate = (initialmaterialweight-remainingmaterialweight)/contact surface area. [formula]

[7] = Compressibility: tableting, hardness and tensile strength; details: die with a diameter of 6 mm
Method: In this experiment, a die with a diameter of 6 mm was used. The drug substance and the drug substance + excipient were tableted under the same pressure, respectively. After the elasticity of the prepared tablets was restored, the radial crushing force F, diameter D, and thickness L of the tablets were measured. The tensile strength of the tablets was calculated according to the following formula: Ts = 2F/IIDL.

[8] = Microscopic morphology and particle size; details: microscopy; hydrochloride
Description: In the examples of the present application, the instrument used for the X-ray powder diffraction test is the D2 Phaser produced by Bruker. The instrument used for the differential scanning calorimetry test is the differential scanning calorimeter DSC 250 produced by TA Instruments. The instrument used for the thermogravimetric analysis is the thermogravimetric analyzer TGA 55 produced by TA Instruments. The instrument used for the FT-IR test is the Fourier infrared spectrometer ID1-summit produced by Thermo. The instrument used for the dynamic vapor sorption test is the DVS Intrinsic produced by Surface Measurement Systems (SMS). The instrument used for the microscopy is the microscope NJF-120A produced by Suzhou Nanguang Electronic Technology Co., Ltd.

[9] = FaSSIF (pH of 8.0), 1 hour, hydrochloride
[10] = FaSSIF (pH of 8.0), 2 hours, hydrochloride
[11] = pH = 4.0 acetic acid-sodium acetate buffer, 2 hours, hydrochloride
[12] = pH = 6.8 phosphate buffer, 4 hours
[13] = pH = 6.8 phosphate buffer, 24 hours

Compound: CCCc1nc(-c2ccc(-c3ccc(CCC(N)(CO)CO)cc3)cc2)co1.Cl [Crystal form A, 2-amino-2-{2-(4'-(2-propyloxazol-4-yl)-[1,1'-biphenyl]-4-yl)ethyl}-1,3-propanediol hydrochloride]
- Maximum single impurity after storage ([1]; At 40 °C/75% RH): Maximum single impurity: 0.04 A%
- Crystal form after storage ([1]; At 40 °C/75% RH, hydrochloride): Crystal form A
- Main purity after storage ([1]; At 40 °C/75% RH, hydrochloride): Main purity: 99.82 A%
- Maximum single impurity after storage ([1]; At 60 °C): Maximum single impurity: 0.04 A%
- Crystal form after storage ([1]; At 60 °C, hydrochloride): Crystal form A
- Main purity after storage ([1]; At 60 °C, hydrochloride): Main purity: 99.80 A%
- Maximum single impurity after storage ([1]; At 92.5%RH): Maximum single impurity: 0.04 A%
- Crystal form after storage ([1]; At 92.5%RH, hydrochloride): Crystal form A
- Main purity after storage ([1]; At 92.5%RH, hydrochloride): Main purity: 99.81 A%
- Maximum single impurity before storage ([1]; Before storage): Maximum single impurity: 0.04 A%
- Main purity before storage ([1]; Before storage, hydrochloride): Main purity: 99.79 A%
- Crystal form after storage ([1]; In light, hydrochloride): Crystal form A
- Main purity after storage ([1]; In light, hydrochloride): Main purity: 98.83 A%
- Maximum single impurity after storage ([1]; In light, hydrochloride): Maximum single impurity: 0.43 A%
- Time the crystal form remains stable ([1]; at 60 °C, 92.5% RH, and 45 °C/75% RH): at least 30 days
- Crystal form of the solid [2, 9]: A + Free alkali
- Solubility [2, 9]: 22 µg/mL
- Crystal form of the solid [2, 10]: A + Free alkali
- Solubility [2, 10]: 24 µg/mL
- Crystal form of the solid ([2]; FaSSIF (pH of 8.0), 4 hours): Free alkali
- Solubility ([2]; FaSSIF (pH of 8.0), 4 hours, hydrochloride): 18 µg/mL
- Crystal form of the solid ([2]; FaSSIF (pH of 8.0), 24 hours): Free alkali
- Solubility ([2]; FaSSIF (pH of 8.0), 24 hours, hydrochloride): 16 µg/mL
- Solubility ([2]; FeSSIF (pH of 5.0), 4 hours, hydrochloride): 340 µg/mL
- Crystal form of the solid ([2]; FeSSIF (pH of 5.0), 24 hours): no crystal form change
- Crystal form of the solid ([2]; SGF (pH of 1.0), 1 hour): A + F
- Crystal form of the solid ([2]; SGF (pH of 1.0), 2 hours): A + F
- Crystal form of the solid ([2]; SGF (pH of 1.0), 4 hours): A + F
- Crystal form of the solid ([2]; SGF (pH of 1.0), 24 hours): A + F
- Crystal form of the solid ([2]; Water, 1 hour, hydrochloride): A + F
- Crystal form of the solid ([2]; Water, 2 hours, hydrochloride): A + F
- Crystal form of the solid ([2]; Water, 4 hours, hydrochloride): A + F
- Solubility ([2]; Water, 4 hours, hydrochloride): 990 µg/mL
- Crystal form of the solid ([2]; Water, 24 hours, hydrochloride): A + F
- solubility at 1 h ([2]; acetic acid-sodium acetate buffer, pH 4, aqueous buffer, pH = 4.0 acetic acid-sodium acetate buffer, 1 hour): 1690 µg/mL
- solubility at 4 h ([2]; acetic acid-sodium acetate buffer, pH 4, aqueous buffer, pH = 4.0 acetic acid-sodium acetate buffer, 4 hours): 1360 µg/mL
- solubility at 24 h ([2]; acetic acid-sodium acetate buffer, pH 4, aqueous buffer, pH = 4.0 acetic acid-sodium acetate buffer, 24 hours): 4110 µg/mL
- solubility at 1 h ([2]; fed state simulated intestinal fluid (FeSSIF), pH 5, fessif, FeSSIF (pH of 5.0), 1 hour): 1930 µg/mL
- solubility at 2 h ([2]; fed state simulated intestinal fluid (FeSSIF), pH 5, fessif, FeSSIF (pH of 5.0), 2 hours): 2110 µg/mL
- solubility at 24 h ([2]; fed state simulated intestinal fluid (FeSSIF), pH 5, fessif, FeSSIF (pH of 5.0), 24 hours): 3720 µg/mL
- solubility at 1 h ([2]; hydrochloric acid aqueous solution, pH 1, simulated gastric fluid, pH = 1.0 hydrochloric acid aqueous solution, 1 hour): 280 µg/mL
- solubility at 2 h ([2]; hydrochloric acid aqueous solution, pH 1, simulated gastric fluid, pH = 1.0 hydrochloric acid aqueous solution, 2 hours): 280 µg/mL
- solubility at 4 h ([2]; hydrochloric acid aqueous solution, pH 1, simulated gastric fluid, pH = 1.0 hydrochloric acid aqueous solution, 4 hours): 330 µg/mL
- solubility at 24 h ([2]; hydrochloric acid aqueous solution, pH 1, simulated gastric fluid, pH = 1.0 hydrochloric acid aqueous solution, 24 hours): 400 µg/mL
- Crystal form of the solid ([2]; pH = 1.0 hydrochloric acid aqueous solution, 1 hour): A + F
- Crystal form of the solid ([2]; pH = 1.0 hydrochloric acid aqueous solution, 2 hours): A + F
- Crystal form of the solid ([2]; pH = 1.0 hydrochloric acid aqueous solution, 4 hours): A + F
- Crystal form of the solid ([2]; pH = 1.0 hydrochloric acid aqueous solution, 24 hours): A + F
- Crystal form of the solid ([2]; pH = 4.0 acetic acid-sodium acetate buffer, 1 hour, hydrochloride): A + F
- Crystal form of the solid [2, 11]: A + F
- Solubility [2, 11]: 1130 µg/mL
- Crystal form of the solid ([2]; pH = 4.0 acetic acid-sodium acetate buffer, 4 hours, hydrochloride): A + F
- Crystal form of the solid ([2]; pH = 4.0 acetic acid-sodium acetate buffer, 24 hours, hydrochloride): A + F
- Crystal form of the solid ([2]; pH = 6.8 phosphate buffer, 1 hour): Free alkali
- Crystal form of the solid ([2]; pH = 6.8 phosphate buffer, 2 hours): Free alkali
- Solubility ([2]; pH = 6.8 phosphate buffer, 2 hours, hydrochloride): Not detected
- Crystal form of the solid [2, 12]: Free alkali
- Solubility [2, 12]: Not detected
- Crystal form of the solid [2, 13]: Free alkali
- Solubility [2, 13]: Not detected
- solubility at 1 h ([2]; phosphate buffer, pH 6.8, aqueous buffer, pH = 6.8 phosphate buffer, 1 hour): 0.16 µg/mL
- solubility at 1 h ([2]; simulated gastric fluid (SGF), pH 1, simulated gastric fluid, SGF (pH of 1.0), 1 hour): 260 µg/mL
- solubility at 2 h ([2]; simulated gastric fluid (SGF), pH 1, simulated gastric fluid, SGF (pH of 1.0), 2 hours): 250 µg/mL
- solubility at 4 h ([2]; simulated gastric fluid (SGF), pH 1, simulated gastric fluid, SGF (pH of 1.0), 4 hours): 280 µg/mL
- solubility at 24 h ([2]; simulated gastric fluid (SGF), pH 1, simulated gastric fluid, SGF (pH of 1.0), 24 hours): 460 µg/mL
- solubility at 1 h ([2]; water, 1 hour): 2020 µg/mL
- solubility at 2 h ([2]; water, 2 hours): 2570 µg/mL
- solubility at 24 h ([2]; water, 24 hours): 3290 µg/mL
- solubility at 24 h ([3]; acetone): 43 µg/mL
- solubility at 24 h ([3]; ethanol): 9990 µg/mL
- solubility at 24 h ([3]; ethyl acetate): 11 µg/mL
- Crystal form after ground (XRPD) [4]: remains unchanged
- Compression degree ([5]; (tap density − bulk density)/tap density): 33.0% 33.0%
- Bulk density ([5]; fixed-volume method, 50 mL): 0.34 g/mL
- Tap density ([5]; fixed-volume method, after tapping): 0.50 g/mL
- Angle of repose ([5]; pouring method with residual cone method): 56.25 °
- Hausner ratio ([5]; tap density/bulk density): 1.5
- PE bag adhesive rate [6]: 0.0007 g/cm^2
- Tensile strength Ts ([7]; Ts = 2F/IIDL, hydrochloride): 0.17
- Hardness ([7]; same pressure, hydrochloride): 5 N
- Experimental phenomena ([7]; tableting): Severe punch sticking
- Length/short diameter ratio [8]: 1-3
- Microscopic morphology [8]: flaky
